Measurements reported in US9376425B2, “Heterocyclic compounds as MDM2 inhibitors for the treatment of cancer” (AMGEN INC., priority 2011, dated 2016).

Biological target: T1, human MDM2 (GST-hMDM2 1-188), interaction with biotinylated-p53 (1-83) (Homo sapiens, UniProt Q00987)
T1 construct: Amino acid residues 1-188 of human MDM2 were expressed; made in house; host or cells: Escherichia coli
Experiment: improved HTRF assay (HTRF2 assay), inhibition of HDM2-p53 interaction
Format: binding
Settings: 0.2 nM GST-hMDM2, 0.5 nM biotinylated-p53, 100 mM KF
Summary of the method: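 GST-hMDM2 preincubated 20 min at RT with serially diluted compound, then biotinylated p53 (1-83, E. coli) added for 60 min. Detection with SA-XLent, anti-GST cryptate and KF, equilibrated >4 h; final DMSO 2%. TR-FRET read; % inhibition calculated relative to nutlin-3.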

T1 sequence (Q00987 1-188): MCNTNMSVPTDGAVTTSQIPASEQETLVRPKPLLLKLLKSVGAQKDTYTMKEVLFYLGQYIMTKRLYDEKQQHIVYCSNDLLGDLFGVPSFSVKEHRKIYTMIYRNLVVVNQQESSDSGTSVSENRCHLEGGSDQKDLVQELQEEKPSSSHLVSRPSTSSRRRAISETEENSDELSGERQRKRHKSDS

C[C@@H](CS(=O)(=O)C(C)(C)C)N1C(=O)[C@H](CC(=O)NO)O[C@H](c2cccc(Cl)c2)[C@H]1c1ccc(Cl)cc1 (single isomer, unassigned) [Example 229, 2-((2S,5R,6R)-4-((S)-1-(tert-butylsulfonyl)propan-2-yl)-6-(3-chlorophenyl)-5-(4-chlorophenyl)-3-oxomorpholin-2-yl)-N-hydroxyacetamide or 2-((2R,5R,6R)-4-((S)-1-(tert-butylsulfonyl)propan-2-yl)-6-(3-chlorophenyl)-5-(4-chlorophenyl)-3-oxomorpholin-2-yl)-N-hydroxyacetamide] and C[C@@H](CS(=O)(=O)C(C)(C)C)N1C(=O)[C@@H](CC(=O)NO)O[C@H](c2cccc(Cl)c2)[C@H]1c1ccc(Cl)cc1 (single isomer, unassigned) [Example 230, 2-((2R,5R,6R)-4-((S)-1-(tert-butylsulfonyl)propan-2-yl)-6-(3-chlorophenyl)-5-(4-chlorophenyl)-3-oxomorpholin-2-yl)-N-hydroxyacetamide or 2-((2S,5R,6R)-4-((S)-1-(tert-butylsulfonyl)propan-2-yl)-6-(3-chlorophenyl)-5-(4-chlorophenyl)-3-oxomorpholin-2-yl)-N-hydroxyacetamide] are within 1.5-fold of each other in IC50: 8 nM for the first, 7 nM for the second.

First: C[C@@H](CS(=O)(=O)C(C)(C)C)N1C(=O)[C@H](CC(=O)N(C)C)O[C@H](c2cccc(Cl)c2)[C@H]1c1ccc(Cl)cc1 (single isomer, unassigned) [Example 231, 2-((2S,5R,6R)-4-((S)-1-(tert-butylsulfonyl)propan-2-yl)-6-(3-chlorophenyl)-5-(4-chlorophenyl)-3-oxomorpholin-2-yl)-N,N-dimethylacetamide or 2-((2R,5R,6R)-4-((S)-1-(tert-butylsulfonyl)propan-2-yl)-6-(3-chlorophenyl)-5-(4-chlorophenyl)-3-oxomorpholin-2-yl)-N,N-dimethylacetamide]
Second: C[C@@H](CS(=O)(=O)C(C)(C)C)N1C(=O)[C@@H](CC(=O)N(C)C)O[C@H](c2cccc(Cl)c2)[C@H]1c1ccc(Cl)cc1 (single isomer, unassigned) [Example 232, 2-((2R,5R,6R)-4-((S)-1-(tert-butylsulfonyl)propan-2-yl)-6-(3-chlorophenyl)-5-(4-chlorophenyl)-3-oxomorpholin-2-yl)-N,N-dimethylacetamide or 2-((2S,5R,6R)-4-((S)-1-(tert-butylsulfonyl)propan-2-yl)-6-(3-chlorophenyl)-5-(4-chlorophenyl)-3-oxomorpholin-2-yl)-N,N-dimethylacetamide]
The IC50 of the first is 1.9-fold lower: 16 nM for the first, 31 nM for the second.

Compared with C[C@@H](CS(=O)(=O)C(C)(C)C)N1C(=O)[C@H](CC(=O)NCCO)O[C@H](c2cccc(Cl)c2)[C@H]1c1ccc(Cl)cc1 (single isomer, unassigned) [Example 233, 2-((2S,5R,6R)-4-((S)-1-(tert-butylsulfonyl)propan-2-yl)-6-(3-chlorophenyl)-5-(4-chlorophenyl)-3-oxomorpholin-2-yl)-N-(2-hydroxyethyl)acetamide or 2-((2R,5R,6R)-4-((S)-1-(tert-butylsulfonyl)propan-2-yl)-6-(3-chlorophenyl)-5-(4-chlorophenyl)-3-oxomorpholin-2-yl)-N-(2-hydroxyethyl)acetamide], C[C@@H](CS(=O)(=O)C(C)(C)C)N1C(=O)[C@@H](CC(=O)NCCO)O[C@H](c2cccc(Cl)c2)[C@H]1c1ccc(Cl)cc1 (single isomer, unassigned) [Example 234, 2-((2R,5R,6R)-4-((S)-1-(tert-butylsulfonyl)propan-2-yl)-6-(3-chlorophenyl)-5-(4-chlorophenyl)-3-oxomorpholin-2-yl)-N-(2-hydroxyethyl)acetamide or 2-((2S,5R,6R)-4-((S)-1-(tert-butylsulfonyl)propan-2-yl)-6-(3-chlorophenyl)-5-(4-chlorophenyl)-3-oxomorpholin-2-yl)-N-(2-hydroxyethyl)acetamide] is 2.5-fold higher in IC50: 6 nM for the first, 15 nM for the second. The first is the more potent here.

First: C[C@@H](CS(=O)(=O)C(C)(C)C)N1C(=O)[C@H](CC(=O)N2CCOCC2)O[C@H](c2cccc(Cl)c2)[C@H]1c1ccc(Cl)cc1 (single isomer, unassigned) [Example 235, (2S,5R,6R)-4-((S)-1-(tert-butylsulfonyl)propan-2-yl)-6-(3-chlorophenyl)-5-(4-chlorophenyl)-2-(2-morpholino-2-oxoethyl)morpholin-3-one or (2R,5R,6R)-4-((S)-1-(tert-butylsulfonyl)propan-2-yl)-6-(3-chlorophenyl)-5-(4-chlorophenyl)-2-(2-morpholino-2-oxoethyl)morpholin-3-one]
Second: C[C@@H](CS(=O)(=O)C(C)(C)C)N1C(=O)[C@@H](CC(=O)N2CCOCC2)O[C@H](c2cccc(Cl)c2)[C@H]1c1ccc(Cl)cc1 (single isomer, unassigned) [Example 236, (2R,5R,6R)-4-((S)-1-(tert-butylsulfonyl)propan-2-yl)-6-(3-chlorophenyl)-5-(4-chlorophenyl)-2-(2-morpholino-2-oxoethyl)morpholin-3-one or (2S,5R,6R)-4-((S)-1-(tert-butylsulfonyl)propan-2-yl)-6-(3-chlorophenyl)-5-(4-chlorophenyl)-2-(2-morpholino-2-oxoethyl)morpholin-3-one]
The IC50 of the first is 2-fold lower: 11 nM for the first, 22 nM for the second.

Going from C[C@@H](CS(=O)(=O)C(C)(C)C)N1C(=O)[C@H](CC(=O)NS(C)(=O)=O)O[C@H](c2cccc(Cl)c2)[C@H]1c1ccc(Cl)cc1 (single isomer, unassigned) [Example 237] to C[C@@H](CS(=O)(=O)C(C)(C)C)N1C(=O)[C@@H](CC(=O)NS(C)(=O)=O)O[C@H](c2cccc(Cl)c2)[C@H]1c1ccc(Cl)cc1 (single isomer, unassigned) [Example 238], the IC50 falls from 3 nM to 1 nM (3-fold).

Compared with CC[C@@H](CN(c1ccccc1F)S(=O)(=O)C1CC1)N1C(=O)[C@H](CC(=O)NS(C)(=O)=O)O[C@H](c2cccc(Cl)c2)[C@H]1c1ccc(Cl)cc1 (single isomer, unassigned) [Example 239, 2-((2S,5R,6R)-6-(3-chlorophenyl)-5-(4-chlorophenyl)-4-((S)-1-(N-(2-fluorophenyl)cyclopropanesulfonamido)butan-2-yl)-3-oxomorpholin-2-yl)-N-(methylsulfonyl)acetamide or 2-((2R,5R,6R)-6-(3-chlorophenyl)-5-(4-chlorophenyl)-4-((S)-1-(N-(2-fluorophenyl)cyclopropanesulfonamido)butan-2-yl)-3-oxomorpholin-2-yl)-N-(methylsulfonyl)acetamide], CC[C@@H](CN(c1ccccc1F)S(=O)(=O)C1CC1)N1C(=O)[C@@H](CC(=O)NS(C)(=O)=O)O[C@H](c2cccc(Cl)c2)[C@H]1c1ccc(Cl)cc1 (single isomer, unassigned) [Example 240, 2-((2R,5R,6R)-6-(3-chlorophenyl)-5-(4-chlorophenyl)-4-((S)-1-(N-(2-fluorophenyl)cyclopropanesulfonamido)butan-2-yl)-3-oxomorpholin-2-yl)-N-(methylsulfonyl)acetamide or 2-((2S,5R,6R)-6-(3-chlorophenyl)-5-(4-chlorophenyl)-4-((S)-1-(N-(2-fluorophenyl)cyclopropanesulfonamido)butan-2-yl)-3-oxomorpholin-2-yl)-N-(methylsulfonyl)acetamide] is higher in IC50: < 1 nM for the first, 11 nM for the second. The first is the more potent here.

First: CC[C@@H](CN(c1ccccc1F)S(=O)(=O)C1CC1)N1C(=O)[C@H](CC(N)=O)O[C@H](c2cccc(Cl)c2)[C@H]1c1ccc(Cl)cc1 (single isomer, unassigned) [Example 241, 2-((2S,5R,6R)-6-(3-chlorophenyl)-5-(4-chlorophenyl)-4-((S)-1-(N-(2-fluorophenyl)cyclopropanesulfonamido)butan-2-yl)-3-oxomorpholin-2-yl)acetamide or 2-((2R,5R,6R)-6-(3-chlorophenyl)-5-(4-chlorophenyl)-4-((S)-1-(N-(2-fluorophenyl)cyclopropanesulfonamido)butan-2-yl)-3-oxomorpholin-2-yl)acetamide]
Second: CC[C@@H](CN(c1ccccc1F)S(=O)(=O)C1CC1)N1C(=O)[C@@H](CC(N)=O)O[C@H](c2cccc(Cl)c2)[C@H]1c1ccc(Cl)cc1 (single isomer, unassigned) [Example 242, 2-((2R,5R,6R)-6-(3-chlorophenyl)-5-(4-chlorophenyl)-4-((S)-1-(N-(2-fluorophenyl)cyclopropanesulfonamido)butan-2-yl)-3-oxomorpholin-2-yl)acetamide or 2-((2S,5R,6R)-6-(3-chlorophenyl)-5-(4-chlorophenyl)-4-((S)-1-(N-(2-fluorophenyl)cyclopropanesulfonamido)butan-2-yl)-3-oxomorpholin-2-yl)acetamide]
The IC50 of the first is 2-fold lower: 1 nM for the first, 2 nM for the second. The first is the more potent here.

CC[C@@H](CN(C)S(=O)(=O)C1CC1)N1C(=O)[C@@H](Cc2nnn[nH]2)O[C@H](c2cccc(Cl)c2)[C@H]1c1ccc(Cl)cc1 (single isomer, unassigned) [Example 243, N-((S)-2-((2R,5R,6R)-2-((1H-tetrazol-5-yl)methyl)-6-(3-chlorophenyl)-5-(4-chlorophenyl)-3-oxomorpholino)butyl)-N-methylcyclopropanesulfonamide or N-((S)-2-((2S,5R,6R)-2-((1H-tetrazol-5-yl)methyl)-6-(3-chlorophenyl)-5-(4-chlorophenyl)-3-oxomorpholino)butyl)-N-methylcyclopropanesulfonamide] and CC[C@@H](CN(C)S(=O)(=O)C1CC1)N1C(=O)[C@H](Cc2nnn[nH]2)O[C@H](c2cccc(Cl)c2)[C@H]1c1ccc(Cl)cc1 (single isomer, unassigned) [Example 244, N-((S)-2-((2S,5R,6R)-2-((1H-tetrazol-5-yl)methyl)-6-(3-chlorophenyl)-5-(4-chlorophenyl)-3-oxomorpholino)butyl)-N-methylcyclopropanesulfonamide or N-((S)-2-((2R,5R,6R)-2-((1H-tetrazol-5-yl)methyl)-6-(3-chlorophenyl)-5-(4-chlorophenyl)-3-oxomorpholino)butyl)-N-methylcyclopropanesulfonamide] are the same in IC50: 1 nM for the first, 1 nM for the second.
